Reference: US12673975B2, “Cyclic peptide, cell scaffold material, cell separating material, and medium” (FUJIFILM Corporation, priority 2019, dated 2026)
Where two headings read alike, the source gives them in different places. Starred links: 1 amine or outer side, 2 acyl side, 3 side chain; linkers in the order of their positions; H or OH if unused. Positions of bridges follow the written chain, without caps; N, C: chain ends. Non-standard residues stand in square brackets, D forms with d. Residues, ends and D or L forms follow the SMILES beside them. hCys = N[C@@H](CCS)C(=O)O; Dab = NCC[C@H](N)C(=O)O; Dap = NC[C@H](N)C(=O)O; X1 = O=C(C[*:2])[*:1]; X2 = O=C(C[*:1])[*:2]

How the values were obtained:
[1] = target: human integrin αvβ5 (Homo sapiens, UniProt P06756+P18084); assay: Evaluation of integrin binding property (surface plasmon resonance, Biacore 3000, immobilized cyclic peptide)
Chain of human integrin αvβ5 (P06756 31-1048): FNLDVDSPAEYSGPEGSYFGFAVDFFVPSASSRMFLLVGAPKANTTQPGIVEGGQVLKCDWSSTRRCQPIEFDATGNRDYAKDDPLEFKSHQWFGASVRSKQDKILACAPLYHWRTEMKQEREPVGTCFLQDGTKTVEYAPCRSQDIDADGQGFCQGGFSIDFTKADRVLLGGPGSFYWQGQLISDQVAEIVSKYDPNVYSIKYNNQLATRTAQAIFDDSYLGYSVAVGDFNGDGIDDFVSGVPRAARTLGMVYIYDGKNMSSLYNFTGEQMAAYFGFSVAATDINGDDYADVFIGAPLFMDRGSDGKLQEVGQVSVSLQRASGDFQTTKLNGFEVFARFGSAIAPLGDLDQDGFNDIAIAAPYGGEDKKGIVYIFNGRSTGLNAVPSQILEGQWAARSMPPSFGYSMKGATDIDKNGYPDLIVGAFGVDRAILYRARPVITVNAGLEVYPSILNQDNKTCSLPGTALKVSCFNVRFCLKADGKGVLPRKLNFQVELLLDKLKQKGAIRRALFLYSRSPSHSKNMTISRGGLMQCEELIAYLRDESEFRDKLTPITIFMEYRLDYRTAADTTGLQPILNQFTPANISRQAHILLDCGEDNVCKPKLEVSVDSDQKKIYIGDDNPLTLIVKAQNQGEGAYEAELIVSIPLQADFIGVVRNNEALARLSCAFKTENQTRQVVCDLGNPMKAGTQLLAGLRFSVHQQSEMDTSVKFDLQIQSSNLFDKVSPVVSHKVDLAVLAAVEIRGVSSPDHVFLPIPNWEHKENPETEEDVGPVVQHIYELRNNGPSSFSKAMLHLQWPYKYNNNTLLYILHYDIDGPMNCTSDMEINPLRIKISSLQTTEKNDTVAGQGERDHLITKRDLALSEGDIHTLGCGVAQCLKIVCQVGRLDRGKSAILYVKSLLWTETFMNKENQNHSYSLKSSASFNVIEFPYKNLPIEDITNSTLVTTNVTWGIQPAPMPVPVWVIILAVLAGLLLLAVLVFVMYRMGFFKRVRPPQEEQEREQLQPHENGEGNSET
Chain of human integrin αvβ5 (P18084 24-799): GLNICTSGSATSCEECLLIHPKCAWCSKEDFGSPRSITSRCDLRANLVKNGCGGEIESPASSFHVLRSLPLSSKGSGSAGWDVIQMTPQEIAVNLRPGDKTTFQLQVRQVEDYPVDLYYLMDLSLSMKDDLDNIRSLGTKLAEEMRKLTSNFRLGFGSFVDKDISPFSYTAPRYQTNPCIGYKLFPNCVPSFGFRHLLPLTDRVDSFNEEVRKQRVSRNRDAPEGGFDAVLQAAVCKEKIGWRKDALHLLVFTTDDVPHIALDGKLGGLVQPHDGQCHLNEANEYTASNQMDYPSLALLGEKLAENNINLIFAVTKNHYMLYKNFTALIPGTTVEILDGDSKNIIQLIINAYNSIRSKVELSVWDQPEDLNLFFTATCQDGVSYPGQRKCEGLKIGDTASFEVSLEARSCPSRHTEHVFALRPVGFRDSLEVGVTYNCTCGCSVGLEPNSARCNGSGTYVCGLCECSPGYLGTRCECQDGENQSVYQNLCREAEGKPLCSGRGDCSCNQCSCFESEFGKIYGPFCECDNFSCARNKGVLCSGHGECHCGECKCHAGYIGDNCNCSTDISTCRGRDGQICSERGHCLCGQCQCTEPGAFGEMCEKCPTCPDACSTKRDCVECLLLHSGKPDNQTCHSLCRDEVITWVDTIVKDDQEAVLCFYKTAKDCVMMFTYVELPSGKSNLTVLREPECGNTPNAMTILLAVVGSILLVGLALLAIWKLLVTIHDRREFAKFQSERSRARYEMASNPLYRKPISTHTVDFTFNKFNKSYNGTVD
Outline: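 Human αvβ5 (30-1,000 nM) flowed for 10 min at 25 °C over immobilized cyclic peptide in 20 mM HEPES, 150 mM NaCl, 5 mM MgCl2, pH 7.4, followed by 30 min running buffer and 0.5 M EDTA regeneration. Dissociation constant from peptide minus unimmobilized channel, scored into standard grades.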

[2] = Evaluation of molecule stability (alkali treatment, residual rate by LC/MS); format: physicochemical; conditions: for Performance evaluation: Stability (residual rate of cyclic peptide after alkali treatment): 500 μM peptide aqueous solution plus equivalent of 1 M sodium hydroxide, 15° C., 3 hours, LC/MS peak area; for Stability (molecule stability, residual rate of the cyclic peptide rank): alkali treatment, residual rate by LC/MS
Outline: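 Stability read as percent of summed LC/MS peak area remaining versus untreated peptide (C18, 45 °C, 10 mM ammonium formate pH 3, ESI positive/negative). Treatment: 500 μM peptide in water plus an equivalent of 1 M NaOH, 15 °C for 3 hours.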

[3] = SPR, 25° C., HEPES buffer with 5 mM magnesium chloride, integrin 30-1,000 nM, read-out: Performance evaluation: Binding activity (dissociation constant between the cyclic peptide and human integrin αvβ5)
[4] = surface plasmon resonance, immobilized cyclic peptide, human integrin αvβ5, read-out: Binding activity (integrin binding property, dissociation constant rank)

Kd [1, 3] | Kd [1, 4] | SMILES | Performance evaluation: Stability (residual rate of cyclic peptide after alkali treatment) [2] | Stability (molecule stability, residual rate of the cyclic peptide rank) [2]
< 50 nM |  | C[C@H](NC(=O)[C@@H]1CCNC(=O)CSCC[C@H](NC(=O)[C@H](C)NC(=O)[C@H](CCCCN)NC(=O)[C@H](CCCCN)NC(=O)[C@@H](N)CCCCN)C(=O)N[C@@H]([C@@H](C)O)C(=O)N2CCC[C@H]2C(=O)N[C@@H](CCCNC(=N)N)C(=O)NCC(=O)N[C@@H](CC(=O)O)C(=O)N[C@@H]([C@@H](C)O)C(=O)N[C@@H](Cc2ccccc2)C(=O)N[C@@H](CCCNC(=N)N)C(=O)N1)C(=O)O [Cyclic peptide 75, KKKA-(Hcy)-TPRGDTFR(Dab(acetyl))A] (H-KKKA[hCys]TPRGDTFR[Dab]A-OH; linker 5-14 via X2) | A (The residual rate of the cyclic peptide is 70% or more.) | 
< 50 nM |  | C[C@H](NC(=O)[C@H](CCCCN)NC(=O)[C@H](CCCCN)NC(=O)[C@@H](N)CCCCN)C(=O)N[C@H]1CCSCC(=O)NCC[C@@H](C(=O)N[C@@H](CC(=O)O)C(=O)O)NC(=O)[C@H](CCCNC(=N)N)NC(=O)[C@H](Cc2ccccc2)NC(=O)[C@H](CC(N)=O)NC(=O)[C@H](CC(=O)O)NC(=O)CNC(=O)[C@H](CCCNC(=N)N)NC(=O)[C@@H]2CCCN2C(=O)[C@H](CCC(=O)O)NC1=O [Cyclic peptide 34, KKKA-(Hcy)-EPRGDNFR(Dab(acetyl))D] (H-KKKA[hCys]EPRGDNFR[Dab]D-OH; linker 5-14 via X2) | A (The residual rate of the cyclic peptide is 70% or more.) | 
100 to 200 nM |  | C[C@H](NC(=O)[C@H](CCCCN)NC(=O)[C@H](CCCCN)NC(=O)[C@@H](N)CCCCN)C(=O)N[C@H]1CCSCC(=O)NCC[C@@H](C(N)=O)NC(=O)[C@H](CCCNC(=N)N)NC(=O)[C@H](Cc2ccc(O)cc2)NC(=O)[C@H](CC(N)=O)NC(=O)[C@H](CC(=O)O)NC(=O)CNC(=O)[C@H](CCCNC(=N)N)NC(=O)[C@@H]2CCCN2C(=O)[C@H](CCC(=O)O)NC1=O [Cyclic peptide 50, KKKA-(Hcy)-EPRGDNYR(Dab(acetyl))] (H-KKKA[hCys]EPRGDNYR[Dab]-NH2; linker 5-14 via X2) | A (The residual rate of the cyclic peptide is 70% or more.) | 
 | 50 to 100 nM | CC[C@H](C)[C@@H]1NC(=O)[C@@H](NC(=O)[C@H](C)NC(=O)[C@H](CCCCN)NC(=O)[C@H](CCCCN)NC(=O)[C@@H](N)CCCCN)CCNC(=O)CSCC[C@@H](C(=O)N[C@@H](C)C(=O)O)NC(=O)[C@H](C)NC(=O)[C@H](Cc2ccccc2)NC(=O)[C@H](CO)NC(=O)[C@H](CC(=O)O)NC(=O)CNC(=O)[C@H](CCCNC(=N)N)NC(=O)[C@@H]2CCCN2C1=O [Cyclic peptide 124, KKKA(Dab(acetyl))IPRGDSFA-(Hcy)-A] (H-KKKA[Dab]IPRGDSFA[hCys]A-OH; linker 5-14 via X1) |  | A (The residual rate of the cyclic peptide is 70% or more.)
 | 50 to 100 nM | CC(C)[C@@H]1NC(=O)[C@H](CC(=O)O)NC(=O)CNC(=O)[C@H](CCCNC(=N)N)NC(=O)[C@H]([C@@H](C)O)NC(=O)[C@H](C(C)C)NC(=O)[C@@H](NC(=O)[C@H](C)NC(=O)[C@H](CCCCN)NC(=O)[C@H](CCCCN)NC(=O)[C@@H](N)CCCCN)CCSCC(=O)NCC[C@@H](C(=O)N[C@@H](C)C(=O)O)NC(=O)[C@H]([C@@H](C)O)NC(=O)[C@H](Cc2ccccc2)NC1=O [Cyclic peptide 113, KKKA-(Hcy)-VTRGDVFT(Dab(acetyl))A] (H-KKKA[hCys]VTRGDVFT[Dab]A-OH; linker 5-14 via X2) |  | A (The residual rate of the cyclic peptide is 70% or more.)
< 50 nM |  | CC[C@H](C)[C@@H]1NC(=O)[C@@H](NC(=O)[C@H](C)NC(=O)[C@H](CCCCN)NC(=O)[C@H](CCCCN)NC(=O)[C@@H](N)CCCCN)CCSCC(=O)NCC[C@@H](C(=O)N[C@@H](C)C(=O)O)NC(=O)[C@H](CCCNC(=N)N)NC(=O)[C@H](Cc2ccccc2)NC(=O)[C@H]([C@@H](C)O)NC(=O)[C@H](CC(=O)O)NC(=O)CNC(=O)[C@H](CCCNC(=N)N)NC(=O)[C@H](CO)NC1=O [Cyclic peptide 77, KKKA-(Hcy)-ISRGDTFR(Dab(acetyl))A] (H-KKKA[hCys]ISRGDTFR[Dab]A-OH; linker 5-14 via X2) | A (The residual rate of the cyclic peptide is 70% or more.) | 
< 50 nM |  | CC(C)[C@@H]1NC(=O)[C@H](CC(=O)O)NC(=O)CNC(=O)[C@H](CCCNC(=N)N)NC(=O)[C@@H]2CCCN2C(=O)[C@H](C(C)C)NC(=O)[C@@H](NC(=O)[C@H](CCCCN)NC(=O)[C@H](CCCCN)NC(=O)[C@@H](N)CCCCN)CCSCC(=O)NCC[C@@H](C(=O)O)NC(=O)[C@H](Cc2ccccc2)NC1=O [Cyclic peptide 66, KKK-(Hcy)-VPRGDVF(Dab(acetyl))] (H-KKK[hCys]VPRGDVF[Dab]-OH; linker 4-12 via X2) | A (The residual rate of the cyclic peptide is 70% or more.) | 
 | < 50 nM | CC(C)[C@@H]1NC(=O)[C@@H](NC(=O)[C@H](C)NC(=O)[C@H](CCCCN)NC(=O)[C@H](CCCCN)NC(=O)[C@H](CCCCN)NC(=O)[C@H](CCCCN)NC(=O)[C@H](CCCCN)NC(=O)[C@@H](N)CCCCN)CCSCC(=O)NCC[C@@H](C(=O)N[C@@H](C)C(=O)O)NC(=O)[C@H](C)NC(=O)[C@H](Cc2ccccc2)NC(=O)[C@H]([C@@H](C)O)NC(=O)[C@H](CC(=O)O)NC(=O)CNC(=O)[C@H](CCCNC(=N)N)NC(=O)[C@@H]2CCCN2C1=O [Cyclic peptide 112, KKKKKKA-(Hcy)-VPRGDTFA(Dab(acetyl))A] (H-KKKKKKA[hCys]VPRGDTFA[Dab]A-OH; linker 8-17 via X2) |  | A (The residual rate of the cyclic peptide is 70% or more.)
50 to 100 nM |  | C[C@H](NC(=O)[C@H](CCCCN)NC(=O)[C@H](CCCCN)NC(=O)[C@@H](N)CCCCN)C(=O)N[C@H]1CNC(=O)CSCC[C@@H](C(N)=O)NC(=O)[C@H](CCCNC(=N)N)NC(=O)[C@H](Cc2ccc(O)cc2)NC(=O)[C@H](CC(N)=O)NC(=O)[C@H](CC(=O)O)NC(=O)CNC(=O)[C@H](CCCNC(=N)N)NC(=O)[C@@H]2CCCN2C(=O)[C@H](CCC(=O)O)NC1=O [Cyclic peptide 53, KKKA(Dap(acetyl))EPRGDNYR-(Hcy)] (H-KKKA[Dap]EPRGDNYR[hCys]-NH2; linker 5-14 via X1) | B (The residual rate of the cyclic peptide is 50% or more and less than 70%.) | 
< 50 nM |  | CC[C@H](C)[C@@H]1NC(=O)[C@@H](NC(=O)CNC(=O)[C@H](CCCCN)NC(=O)[C@H](CCCCN)NC(=O)[C@@H](N)CCCCN)CCSCC(=O)NCC[C@@H](C(=O)N[C@@H](C)C(=O)O)NC(=O)[C@H](CCCNC(=N)N)NC(=O)[C@H](Cc2ccccc2)NC(=O)[C@H](CC(N)=O)NC(=O)[C@H](CC(=O)O)NC(=O)CNC(=O)[C@H](CCCNC(=N)N)NC(=O)[C@@H]2CCCN2C1=O [Cyclic peptide 1, KKKG-(Hcy)-IPRGDNFR(Dab(acetyl))A] (H-KKKG[hCys]IPRGDNFR[Dab]A-OH; linker 5-14 via X2) | A (The residual rate of the cyclic peptide is 70% or more.) | 
